In PMC5402990 (PLoS Neglected Tropical Diseases, 2017):

Target: PIKfyve (Homo sapiens, UniProt Q9Y2I7)
Assay type: cell-based

PIKfyve, sequence (Q9Y2I7 whole entry, species assumed): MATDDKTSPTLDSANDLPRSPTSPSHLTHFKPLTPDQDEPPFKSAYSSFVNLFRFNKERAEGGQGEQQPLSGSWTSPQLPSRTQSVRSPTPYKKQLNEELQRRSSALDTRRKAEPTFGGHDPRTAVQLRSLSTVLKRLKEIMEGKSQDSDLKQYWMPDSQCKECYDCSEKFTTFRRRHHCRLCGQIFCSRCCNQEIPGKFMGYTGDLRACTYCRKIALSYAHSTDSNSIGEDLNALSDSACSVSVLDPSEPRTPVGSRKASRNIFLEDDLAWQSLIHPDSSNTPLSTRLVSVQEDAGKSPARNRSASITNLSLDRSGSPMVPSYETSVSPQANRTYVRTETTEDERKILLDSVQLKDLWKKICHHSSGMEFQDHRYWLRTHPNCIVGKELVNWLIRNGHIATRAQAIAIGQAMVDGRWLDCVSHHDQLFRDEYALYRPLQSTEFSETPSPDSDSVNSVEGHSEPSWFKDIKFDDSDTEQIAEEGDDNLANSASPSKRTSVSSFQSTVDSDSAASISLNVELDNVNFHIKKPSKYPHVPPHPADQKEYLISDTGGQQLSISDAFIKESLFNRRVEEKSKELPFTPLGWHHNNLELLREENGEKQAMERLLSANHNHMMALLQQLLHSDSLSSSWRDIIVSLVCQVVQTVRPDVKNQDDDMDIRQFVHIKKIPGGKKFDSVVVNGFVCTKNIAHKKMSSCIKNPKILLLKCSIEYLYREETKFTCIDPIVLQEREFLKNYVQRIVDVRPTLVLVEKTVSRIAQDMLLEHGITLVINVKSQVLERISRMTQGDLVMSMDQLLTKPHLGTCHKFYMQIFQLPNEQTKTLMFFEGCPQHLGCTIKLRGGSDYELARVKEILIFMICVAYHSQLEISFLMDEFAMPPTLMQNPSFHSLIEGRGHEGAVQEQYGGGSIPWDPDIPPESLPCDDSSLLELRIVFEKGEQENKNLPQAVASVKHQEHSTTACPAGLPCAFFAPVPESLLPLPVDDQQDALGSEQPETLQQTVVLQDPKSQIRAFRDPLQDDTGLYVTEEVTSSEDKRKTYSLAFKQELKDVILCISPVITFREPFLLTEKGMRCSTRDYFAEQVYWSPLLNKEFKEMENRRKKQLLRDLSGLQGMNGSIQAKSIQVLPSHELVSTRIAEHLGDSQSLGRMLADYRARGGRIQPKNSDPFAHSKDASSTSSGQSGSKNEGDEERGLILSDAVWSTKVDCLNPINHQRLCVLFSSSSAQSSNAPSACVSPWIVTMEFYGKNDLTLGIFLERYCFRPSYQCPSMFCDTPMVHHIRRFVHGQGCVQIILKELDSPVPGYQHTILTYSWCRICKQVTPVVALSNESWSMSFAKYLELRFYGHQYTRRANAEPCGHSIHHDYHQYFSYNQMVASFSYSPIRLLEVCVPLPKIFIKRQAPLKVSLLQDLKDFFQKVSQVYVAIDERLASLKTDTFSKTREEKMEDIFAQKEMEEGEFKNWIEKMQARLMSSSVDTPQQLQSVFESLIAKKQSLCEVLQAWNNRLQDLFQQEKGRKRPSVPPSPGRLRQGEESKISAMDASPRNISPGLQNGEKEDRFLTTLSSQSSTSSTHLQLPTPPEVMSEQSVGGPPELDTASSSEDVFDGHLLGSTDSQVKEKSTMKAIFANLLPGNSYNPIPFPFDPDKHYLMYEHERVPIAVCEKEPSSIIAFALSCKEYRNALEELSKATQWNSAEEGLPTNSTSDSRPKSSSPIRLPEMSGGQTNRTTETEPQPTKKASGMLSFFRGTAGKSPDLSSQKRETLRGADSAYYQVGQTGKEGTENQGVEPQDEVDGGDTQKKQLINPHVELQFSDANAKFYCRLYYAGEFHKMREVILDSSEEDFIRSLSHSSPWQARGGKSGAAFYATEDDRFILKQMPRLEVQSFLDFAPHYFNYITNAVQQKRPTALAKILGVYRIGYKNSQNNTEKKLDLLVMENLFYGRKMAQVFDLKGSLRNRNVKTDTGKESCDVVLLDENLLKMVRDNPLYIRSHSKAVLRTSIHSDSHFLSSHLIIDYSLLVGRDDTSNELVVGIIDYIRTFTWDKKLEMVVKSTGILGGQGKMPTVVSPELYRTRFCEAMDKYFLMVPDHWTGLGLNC

For `Cc1cccc(/C=N/Nc2cc(N3CCOCC3)nc(OCCc3ccccn3)n2)c1` [Apilimod, apilimod], the “dose needed to inhibit EBOV GP-mediated infection in GFP-PIKfyve vs. GFP expressing cells” value was “higher doses of apilimod were needed to achieve similar levels of inhibition”.
